Measured values as given in patent US20210380994A1, “LACTOCOCCUS LACTIS EXPRESSION SYSTEM FOR DELIVERING PROTEINS EFFICACIOUS FOR THE TREATMENT OF EPITHELIAL BARRIER FUNCTION DISORDERS” (Second Genome, Inc., priority 2018, published 2021).

Experiments:
[1] = system: human colonic epithelial cells (HCT8 enterocytes and HT29-MTX goblet cells); assay: trans-epithelial electrical resistance (TEER) assay, epithelial/monocyte co-culture disrupted by heat killed E. coli; assay type: cell-based; conditions: staurosporine 100 nM, control compound
Experimental: Assays were performed as described below in trans-well plates where co-cultures of multiple cell types were performed utilizing a permeable membrane to separate cells. In the apical (top) chamber, human colonic epithelial cells, consisting of a mixture of enterocytes and goblet cells, were cultured until cells obtained tight junction formation and barrier function capacity as assessed by measurement of trans-epithelial electrical resistance (TEER). In the basolateral chamber, monocytes were cultured separately. Epithelial […] were primed with inflammatory cytokines. The assays measured the effect of a therapeutic protein, e.g., SG-11, on epithelial barrier function, muc2 gene expression, and production of cytokines.
Cell culture. The HCT8 human enterocyte cell line (ATCC Cat. No. CCL-244) was maintained in RPMI-1640 medium supplemented with 10% fetal bovine seam, 100 IU/ml penicillin, 100 ? g/ml streptomycin, 10 ? g/ml gentamicin and 0.25 μg/ml amphotericin (cRPMI). […]
Epithelial cell culture. […] Epithelial cells were trypsinized from culture flasks and viable cells determined by trypan blue counting. […]
Co-culture assay. […] TEER readings were measured after the IFN-© treatment and were used as the pre-treatment TEER value. […]

[2] = system: HCT8 enterocyte and HT29-MTX goblet cell lines; assay: Oris Cell Migration assay (epithelial cell wound healing); assay type: cell-based, human; conditions: 48 hours; SG-11 1 μg/ml, EGF 30 ng/ml, staurosporine 100 nM; FIG. 2
Excerpt: The 96 well Oris Cell Migration assay containing plugs preventing cell attachment in the center of each well was used according to the manufacturer's instructions (Platypus Technologies. Madison, Wis.).
The migration assay plates were warmed to room temperature prior to use and plugs were removed rom 100% confluence wells prior to cell addition. The HCT8 enterocyte and HT29-MTX goblet cell lines were used at a 9:1 ratio with a total of 5×10^4 total cells added per well (4.5×10^4 HCT8 cells and 0.5×10^4 HT29-MTX cells). Cells were incubated at 37° C.+5% CO2 for 24 hours. Plugs were then removed from all control and sample wells. Control wells included cells treated with the diluent vehicle as the blank, 30 ng/ml epidermal growth factor (EGF) as the positive control, and 100 nM staurosporine as the negative control, all diluted in cRPMI. Sample wells contained SG-11 protein (SEQ ID NO:9) at a concentration of 1 μg/ml diluted in eRPMI. 100% and 0% wells were cultured in cRPMI. […] The green fluorescent viability dye Calcenin AM was added to all wells at a concentration of 0.5 μg/min PBS containing 0.9 mM CaCl2 and 0.5 mM MgCl2, incubated for 30 min at 37° C.+5% CO2, the dye was removed and cells were washed in PBS containing 0.9 mM CaCl2 and 0.5 mM MgCl2, and fluorescence was measured. […] Samples were normalized between 100% and 0% samples and values expressed as a percent growth.

[3] = system: C57BL/6 mice treated with DSS; assay: concurrent (prophylactic) DSS model of inflammatory bowel disease (Examples 4, 13A); assay type: in vivo; conditions: Example 4; 50 nmoles/kg i.p. b.i.d.
Experimental: On day six, mice were fasted for four hours and then orally gavaged with 600 mg/kg 4KDa dextran labeled with fluorescein isothiocyanate (FITC) [4KDa-FITC]. One hour after the 4KDa-FITC gavage, mice were euthanized, blood was collected, and FITC signal was measured in serum. […] The magnitude of 4KDa-FITC dextran translocation observed for SG-11 was similar to the positive control of Gly2-GLP2. Results are shown in FIG. 3, and are presented as mean±SEM. The graph in FIG. 3 represents data pooled from 3 independent experiments, each using 10 mice (n=30).
SG-11 was also assessed for its effects on the levels of lipopolysaccharide (LPS) binding protein (LBP) in the blood of the DSS animal with and without SG-11 administration. LBP, which has been linked to clinical disease activity in subjects with inflammatory bowel disease, was also measured by […] in the serum of mice tested in the DSS model described in this Example. […] Results are shown in FIG. 4, and are presented as mean±SEM. The graph in FIG. 4 represents data pooled from 3 independent experiments (n=30; each experiment using 10 mice).
Body weight was measured daily from mice included in the DSS model described in this Example. Percent change from starting weight on day 0 was determined for each mouse. […]
Colon length was measured in mice included in the DSS model described above. […]

[4] = system: C57BL/6 mice treated with DSS; assay: therapeutic DSS model of inflammatory bowel disease, treatment after 7 days DSS (Examples 5, 13B); assay type: in vivo
Experimental: Following a 7-day acclimation period, the mice were provided with drinking water containing 2.5% DSS for 7 days. Fresh 2.5% DSS water was prepared every 2 days during the 7 day DSS administration. For this therapeutic DSS study, SG-11 used to treat the animals was fused at its N-terminus to a FLAG Tag (DYKDDDDK; SEQ ID NO:32).
On day 7, normal drinking water was restored and i.p. treatments of 50 nmole/kg of SG-11 ([…]) or Gly2-GLP2 (0.2 mg/kg) were initiated. Treatments were administered twice a day (b.i.d.), with a morning and evening dose (every 8 and 16 hours) for six days.
Body weight was measured daily during the morning treatment. The colon tissue was then harvested and length was measured in centimeters and the tissue was weighed. Fecal material was flushed from the colon and residual PBS removed by gently running the colon tissue through a pair of forceps. The colon tissue was then weighed and colon weight to length ratio in mg/mm was determined. Following weight measurements proximal and distal colon tissue was banked for RNA and protein analysis and the remaining tissues was fixed in 10% neutral buffered formalin for histopathology. Statistical analysis was performed by a one-way ANOVA compared to DSS+vehicle for serum 4KDa-FITC translocation, scrum LBP concentrations, colon length, and colon weight to length ratio, while a two-way ANOVA was performed for analysis of body weight. In all analysis, a Fisher's LSD test for multiple comparisons was used. Graphs represent data pooled from two experiments, and are plotted as mean±SEM.
Histopathology analysis was performed on proximal and distal colon tissues from the therapeutic DSS model described above. Proximal (FIG. 13A) and distal (FIG. 13B) colon scores (range 0-4) are presented as well as the total score for the colon which represents the sum of proximal and distal colon scores (Range 0-8) (FIG. 13C). LMA=Loss of mucosal architecture, Edema=Edema, INF=Inflammation, TMI=Transmural inflammation, MH=Mucosal hyperplasia, DYS=Dysplasia. Graphs represent data pooled from two independent experiments, and are plotted as mean±SEM. Statistical analysis was performed by a one-way ANOVA compared to DSS+vehicle followed by a Fisher's LSD test for multiple comparisons. […]
At the end of each DSS model study, mice were fasted for 4 hours and then orally gavaged with 600 mg/kg 4KDa dextran labeled with FITC [4KDa-FITC]. One hour after the 4KDa-FITC gavage, mice were euthanized, blood was collected, and FITC signal was measured in serum. […]
Upon completion of the OSS models above. LBP levels were measured as an inflammation centric readout of barrier function following the protocol detailed in Example 5. […] LPS binding protein (LBP) levels were measured in serum using a commercially available ELISA Kit (Enzo Lift Sciences).

[5] = mouse, in vivo, ip
Experimental: Eight-week old C57BL/6 mice were housed 5 animals per cage and given food and water ad libitum for 7 days. Following the 7-day acclimation period, treatments were initiated concurrently with addition of 2.5% DSS to the drinking water. […] The mice were treated with 2.5% DSS in their drinking water for 6 days. […] Fresh 2.5% DSS drinking water was prepared every 2 days.

Compound: CN[C@@H]1C[C@H]2O[C@@](C)([C@@H]1OC)n1c3ccccc3c3c4c(c5c6ccccc6n2c5c31)C(=O)NC4 [staurosporine, reference compound]
- TEER [1]: drastic decrease in TEER
- percent growth (epithelial cell wound healing) [2]: suppressing cell proliferation

Compound: EGF: epidermal growth factor, positive control (NSDSECPLSHDGYCLHDGVCMYIEALDKYACNCVVGYIGERCQYRDLKWWELR; UniProt P01133 971-1023, looked up)
- percent growth (epithelial cell wound healing) [2]: increasing proliferation

Compound: Gly2-GLP2 [reference compound]
- colon length [3]: significant improvement in colon length
- colon weight to length ratio [3]: significant improvement in colon weight to length ratios
- histopathology: inflammation and transmural inflammation scores ([4]; Example 5): no change
- histopathology: loss of mucosal architecture score ([4]; Example 5): modest, but significant reduction
- serum LBP ([4]; Example 5, 50 nmole/kg i.p. b.i.d. six days after 7 days DSS, FLAG-tagged SG-11): no reduction in LBP
- colon weight to length ratio ([4]; Example 13B, p<0.01): did not

Compound: fluorescently labeled bovine serum albumin: fluorescently labeled bovine serum albumin used for tracking studies
- time at which protein reached the colon [5]: 6 h
